# ChEMBL document CHEMBL1201862, “PubChem BioAssay data set” (2004)
# The source made the active and inactive calls.
# How the values were obtained:
# Coagulation factor XII = target: T1, Coagulation factor XII (Homo sapiens, UniProt P00748); assay: FXIIa inhibitor potency, concentration-response, biochemical (AID 716); format: functional
# T1 sequence (P00748 whole entry): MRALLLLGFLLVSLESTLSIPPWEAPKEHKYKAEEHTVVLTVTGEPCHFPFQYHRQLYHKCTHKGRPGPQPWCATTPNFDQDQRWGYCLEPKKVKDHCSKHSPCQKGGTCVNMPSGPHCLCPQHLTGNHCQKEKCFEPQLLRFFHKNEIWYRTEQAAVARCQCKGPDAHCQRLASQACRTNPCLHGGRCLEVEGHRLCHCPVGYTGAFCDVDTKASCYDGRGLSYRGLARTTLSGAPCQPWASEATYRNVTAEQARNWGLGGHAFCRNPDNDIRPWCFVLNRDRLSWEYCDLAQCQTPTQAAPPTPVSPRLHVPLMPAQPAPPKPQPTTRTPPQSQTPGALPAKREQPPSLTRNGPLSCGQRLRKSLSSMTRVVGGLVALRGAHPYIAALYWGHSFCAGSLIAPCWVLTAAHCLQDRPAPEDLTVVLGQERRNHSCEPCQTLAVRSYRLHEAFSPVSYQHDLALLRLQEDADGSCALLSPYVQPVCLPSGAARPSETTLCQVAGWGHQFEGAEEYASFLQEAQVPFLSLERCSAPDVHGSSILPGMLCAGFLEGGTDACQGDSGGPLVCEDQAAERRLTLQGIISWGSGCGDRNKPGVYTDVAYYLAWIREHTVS
# [1] = target: Eukaryotic translation initiation factor 4E (Mus musculus, UniProt P63073); assay: eIF4E–eIF4G protein interaction inhibitors, dose response, biochemical, TR-FRET (AID 855); format: functional;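 also: potency for disrupting eIF4E binding to eIF4GI seen as loss of FRET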
# [2] = microbe, parasite or virus in culture; format: functional; conditions: Mycobacterium tuberculosis
# [3] = target: G-protein coupled receptor 55 (Homo sapiens, UniProt Q9Y2T6); assay: GPR55 antagonists blocking LPI-driven arrestin recruitment, primary screen, imaging, U2OS, beta-arrestin-GFP, LPI agonist (AID 2013); format: functional;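 also: antagonist potency measured as reduced agonist-driven arrestin aggregation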
# [4] = target: T2, Calpain-2 catalytic subunit (Sus scrofa, UniProt P43367); assay: pig calpain II inhibitor potency, dose response, biochemical, fluorogenic peptide substrate (AID 1420); format: functional
# T2 sequence (P43367 whole entry): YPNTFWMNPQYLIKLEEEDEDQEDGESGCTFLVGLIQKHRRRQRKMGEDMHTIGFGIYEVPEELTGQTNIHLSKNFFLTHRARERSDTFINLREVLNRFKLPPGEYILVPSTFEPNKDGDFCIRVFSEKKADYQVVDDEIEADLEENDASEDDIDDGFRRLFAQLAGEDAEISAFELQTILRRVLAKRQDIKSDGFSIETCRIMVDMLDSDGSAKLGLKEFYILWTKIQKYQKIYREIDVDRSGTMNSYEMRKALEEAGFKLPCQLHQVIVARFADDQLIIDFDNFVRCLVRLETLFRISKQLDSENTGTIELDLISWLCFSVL
# [5] = Shn3 3'UTR reporter inhibitors, dose response, cell-based, Clone20 osteoblasts, firefly luciferase, cherry-picked (AID 624132); format: functional;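 also: firefly luciferase luminescence from reporter carrying the Shn3 3'UTR in osteoblasts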
# [6] = target: T3, Microphthalmia-associated transcription factor (Homo sapiens, UniProt O75030); assay: TRPM1 promoter luciferase signal decrease, dose response, MITF inhibitor project, cell-based, SK-MEL-5, cherry-picked, set 3 (AID 493073); format: functional
# T3 sequence (O75030 whole entry): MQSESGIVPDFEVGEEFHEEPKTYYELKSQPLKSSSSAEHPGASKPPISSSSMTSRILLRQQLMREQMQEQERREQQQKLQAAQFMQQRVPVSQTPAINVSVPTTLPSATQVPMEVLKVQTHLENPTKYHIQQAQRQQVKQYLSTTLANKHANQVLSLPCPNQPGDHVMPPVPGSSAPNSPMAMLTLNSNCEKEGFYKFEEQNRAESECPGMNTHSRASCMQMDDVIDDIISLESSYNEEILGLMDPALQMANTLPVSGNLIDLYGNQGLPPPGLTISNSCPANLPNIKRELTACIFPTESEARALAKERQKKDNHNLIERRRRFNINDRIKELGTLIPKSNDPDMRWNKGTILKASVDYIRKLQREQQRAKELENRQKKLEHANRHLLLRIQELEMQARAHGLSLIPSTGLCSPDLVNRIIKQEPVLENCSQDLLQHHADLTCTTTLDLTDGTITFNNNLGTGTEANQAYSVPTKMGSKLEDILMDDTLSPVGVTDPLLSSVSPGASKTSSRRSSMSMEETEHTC
# [7] = LGR2 antagonists, dose response, cell-based, HEK293, CRE-luciferase reporter, cherry pick, set 2 (AID 743343); format: functional;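 also: transfected cells were stimulated with diluted bursicon conditioned medium after compound addition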
# [8] = HepG2 cell cytotoxicity, dose response, cytotoxicity control for Shn3 inhibitor project, CellTiter-Glo, cherry-picked (AID 624134); format: functional, cell-based
# [9] = MC4R antagonists, dose response, counter-screen for LGR2 antagonist project, cell-based, plate reader, cherry pick (AID 743444); format: functional;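 also: transfected HEK 293 cells stimulated with alpha-MSH peptide; potency of inhibitors of the alpha-MSH evoked signal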
# [10] = HEK293 cell cytotoxicity, dose response, cytotoxicity control, plate reader, cherry-picked samples (AID 743446); format: functional, cell-based
# A-375 = assay: A375 melanoma cell viability reduction, dose response, counter-screen for MITF modulator project, cherry-pick samples, set 2 (AID 540335); format: functional, cell-based; conditions: Homo sapiens
# [11] = Luminescence Cell-Based Dose Confirmation HTS to Identify Inhibitors of Platelet Dense Granule Release. [Related pubchem assays: 1663 (Primary HTS), 1678 (Summary of Project)]; format: functional
# HeLa = assay: HeLa cell cytotoxicity, dose response, cytotoxicity control, 24 h, cherry-picked samples (AID 504726); format: functional, cell-based; conditions: Homo sapiens;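 also: potency for cytotoxicity as loss of luminescence signal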
# [12] = target: Luciferin 4-monooxygenase (Photinus pyralis, UniProt P08659); assay: firefly luciferase enzyme inhibitors, dose response, biochemical, luminescence (AID 1891)
# [13] = target: T4, Heat shock factor protein 1 (Mus musculus, UniProt P38532); assay: inhibition of MG132-induced HSE-luciferase signal, confirmation, cell-based, NIH3T3, luminescence, dose retest (AID 2382); format: functional;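 also: NIH3T3 fibroblasts with HSF1-driven luciferase reporter stressed by proteasome inhibitor MG132; luminescence from HSF1-driven luciferase expression after 8 hours of MG132 stress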
# T4 sequence (P38532 whole entry): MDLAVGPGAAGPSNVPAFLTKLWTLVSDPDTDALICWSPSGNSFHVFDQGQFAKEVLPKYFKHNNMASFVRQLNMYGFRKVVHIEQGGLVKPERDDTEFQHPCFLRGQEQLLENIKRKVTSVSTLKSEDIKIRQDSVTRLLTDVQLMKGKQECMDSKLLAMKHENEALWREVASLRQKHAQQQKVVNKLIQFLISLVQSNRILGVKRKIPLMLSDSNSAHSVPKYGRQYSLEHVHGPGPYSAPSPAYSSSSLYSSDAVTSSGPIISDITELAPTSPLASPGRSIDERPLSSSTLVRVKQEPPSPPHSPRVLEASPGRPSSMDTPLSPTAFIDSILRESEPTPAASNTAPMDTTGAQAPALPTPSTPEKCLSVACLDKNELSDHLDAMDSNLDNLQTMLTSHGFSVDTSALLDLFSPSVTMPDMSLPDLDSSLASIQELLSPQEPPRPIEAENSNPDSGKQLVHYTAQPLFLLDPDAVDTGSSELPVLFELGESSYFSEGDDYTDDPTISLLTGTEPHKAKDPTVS
# [14] = A549 cell cytotoxicity, dose response, cytotoxicity control, plate reader, cherry-pick, antagonist series (AID 743412); format: functional, cell-based
# [15] = control 3'UTR Renilla luciferase suppression, dose response, counter-screen for Shn3 inhibitor project, cell-based, Clone20-Shn3RL, cherry-picked (AID 624133); format: functional
# [16] = target: T5, Alkaline phosphatase, tissue-nonspecific isozyme (Homo sapiens, UniProt P05186); assay: human TNAP enzyme inhibitors, SAR follow-up, biochemical, luminescent, dose response (AID 1056)
# T5 sequence (P05186 whole entry): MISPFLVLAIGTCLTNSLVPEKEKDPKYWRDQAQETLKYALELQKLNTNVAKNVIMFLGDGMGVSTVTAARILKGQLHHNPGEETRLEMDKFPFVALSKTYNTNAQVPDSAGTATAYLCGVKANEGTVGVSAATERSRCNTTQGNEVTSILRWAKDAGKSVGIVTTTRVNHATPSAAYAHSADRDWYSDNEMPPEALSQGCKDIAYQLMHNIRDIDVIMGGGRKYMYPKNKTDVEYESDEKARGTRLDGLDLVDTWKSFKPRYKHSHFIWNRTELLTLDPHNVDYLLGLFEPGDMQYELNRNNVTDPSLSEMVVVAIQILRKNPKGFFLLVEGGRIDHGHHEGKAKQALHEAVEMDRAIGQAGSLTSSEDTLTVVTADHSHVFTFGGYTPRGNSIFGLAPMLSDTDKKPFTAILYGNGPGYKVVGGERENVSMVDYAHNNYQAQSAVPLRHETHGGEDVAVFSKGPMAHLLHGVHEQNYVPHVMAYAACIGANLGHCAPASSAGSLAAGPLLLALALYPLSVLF
# [17] = target: Glyceraldehyde-3-phosphate dehydrogenase (Homo sapiens, UniProt P04406)
# Sequence of Glyceraldehyde-3-phosphate dehydrogenase (P04406 whole entry): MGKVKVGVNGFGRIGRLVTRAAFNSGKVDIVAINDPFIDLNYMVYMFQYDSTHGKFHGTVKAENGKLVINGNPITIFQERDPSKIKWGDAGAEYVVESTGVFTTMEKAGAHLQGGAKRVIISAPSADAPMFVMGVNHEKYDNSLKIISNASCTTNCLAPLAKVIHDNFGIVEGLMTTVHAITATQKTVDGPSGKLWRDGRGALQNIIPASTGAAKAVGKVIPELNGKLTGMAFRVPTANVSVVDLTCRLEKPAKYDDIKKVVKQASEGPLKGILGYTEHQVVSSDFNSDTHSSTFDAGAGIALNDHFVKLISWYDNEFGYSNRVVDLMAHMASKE
# Sequence of Eukaryotic translation initiation factor 4E (P63073 whole entry): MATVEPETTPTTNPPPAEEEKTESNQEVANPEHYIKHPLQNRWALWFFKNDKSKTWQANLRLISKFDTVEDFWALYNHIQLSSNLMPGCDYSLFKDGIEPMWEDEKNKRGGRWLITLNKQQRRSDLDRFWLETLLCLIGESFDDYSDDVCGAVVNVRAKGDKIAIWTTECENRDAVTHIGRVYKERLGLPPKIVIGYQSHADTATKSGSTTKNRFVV
# Sequence of G-protein coupled receptor 55 (Q9Y2T6 whole entry): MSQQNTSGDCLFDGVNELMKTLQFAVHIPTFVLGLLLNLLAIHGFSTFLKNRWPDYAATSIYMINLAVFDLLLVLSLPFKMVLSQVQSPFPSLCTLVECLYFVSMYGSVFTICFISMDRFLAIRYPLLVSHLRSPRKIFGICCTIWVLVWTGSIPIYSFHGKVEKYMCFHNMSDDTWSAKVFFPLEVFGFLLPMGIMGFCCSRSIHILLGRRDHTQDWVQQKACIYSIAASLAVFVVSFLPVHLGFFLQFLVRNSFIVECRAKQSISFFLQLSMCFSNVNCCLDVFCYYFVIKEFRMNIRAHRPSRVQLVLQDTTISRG
# Sequence of Luciferin 4-monooxygenase (P08659 whole entry): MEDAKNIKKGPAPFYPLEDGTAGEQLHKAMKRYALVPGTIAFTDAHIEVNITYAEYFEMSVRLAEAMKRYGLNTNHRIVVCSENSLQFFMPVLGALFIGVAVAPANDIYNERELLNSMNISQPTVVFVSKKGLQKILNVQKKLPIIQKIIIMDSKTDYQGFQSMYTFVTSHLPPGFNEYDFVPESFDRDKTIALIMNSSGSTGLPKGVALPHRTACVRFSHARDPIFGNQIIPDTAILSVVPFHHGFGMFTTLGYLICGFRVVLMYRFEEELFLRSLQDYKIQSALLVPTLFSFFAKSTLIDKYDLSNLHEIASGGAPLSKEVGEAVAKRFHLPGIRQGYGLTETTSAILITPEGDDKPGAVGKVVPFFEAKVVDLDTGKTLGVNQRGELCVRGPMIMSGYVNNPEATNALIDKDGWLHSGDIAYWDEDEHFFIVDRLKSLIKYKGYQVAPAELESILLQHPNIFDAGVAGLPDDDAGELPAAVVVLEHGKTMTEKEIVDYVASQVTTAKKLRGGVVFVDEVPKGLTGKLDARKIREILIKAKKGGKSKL
smiles,measurement,setting,value
CC(=O)c1c(C)nn(CC(O)COc2ccc3c(c2)CCC3)c1C (configuration not stated),IC50,Coagulation factor XII,> 50 µM (inactive)
CCOC(=O)N1CCN(C(=O)C2CC(c3ccc(F)cc3)=NO2)CC1 (configuration not stated),IC50,Coagulation factor XII,> 50 µM (inactive)
CCCCOCCCn1c(-c2ccco2)nc2nc3ccccc3nc21,IC50,[1],> 64 µM (inactive)
same,CC50,[2],> 40 µM (active)
c1ccc(CCNc2ncnc3scc(C4COc5ccccc5O4)c23)cc1 (configuration not stated),IC50,[3],3.59 µM (active)
same,IC50,[4],10.4 µM (not active)
O=C1CC(N2CCN(Cc3ccc4c(c3)OCO4)CC2)C(=O)N1c1cccc(Cl)c1 (configuration not stated),IC50,[1],> 64 µM (inactive)
COc1cc(SC)ccc1C(=O)Nc1nc(C)cs1,AC50,[5],7.09 µM (active)
same,AC50,[6],4.81 µM (active)
same,AC50,[7],0.49 µM (active)
same,AC50,[8],> 70 µM (inactive)
same,AC50,[9],0.491 µM (active)
same,AC50,[10],24.9 µM (active)
same,AC50,A-375,47.4 µM (active)
same,EC50,[11],7.22 µM (active)
same,AC50,HeLa,42.3 µM (active)
same,EC50,[12],0.511 µM (active)
same,EC50,[13],0.845 µM (active)
same,AC50,[14],43.9 µM (active)
same,AC50,[15],35.2 µM (active)
Cc1nc2ccc(S(=O)(=O)NC(C(=O)Nc3nc4ccc(Cl)cc4s3)C(C)C)cc2s1 (configuration not stated),IC50,[3],0.894 µM (active)
CCOc1ccc(OCC)c(S(=O)(=O)Nc2cccnc2)c1,IC50,[16],4.44 µM (active)
same,IC50,[17],> 100 µM (not active)
NC1=NC(=O)/C(=C\c2ccsc2)S1,IC50,[1],50 µM (inactive)
Cc1noc(C)c1COC(=O)Cc1ccc(Cl)cc1,IC50,Coagulation factor XII,> 50 µM (inactive)
O=C(O)c1cc(-c2ccc(F)cc2)n[nH]1,IC50,[16],4.74 µM (active)
same,IC50,[17],> 100 µM (not active)
